{
  "source": "ChEMBL document CHEMBL1155237",
  "about": "“Selective inhibitors of the mutant B-Raf pathway: discovery of a potent and orally bioavailable aminoisoquinoline” (J Med Chem, 2009)",
  "key": {"[1]": {"tested_on": "Epidermal growth factor receptor (Homo sapiens), P00533 [UNDEFINED MUTATION]", "experiment": "Inhibition of EGFR L747-S752del, P753S mutant assessed as enzyme activity at 1 uM relative to untreated control", "format": "protein assay", "parameters": "scale not given: the % may be the effect or the level left"}, "[2]": {"target": "Dual specificity mitogen-activated protein kinase kinase 2 (Homo sapiens) (UniProt P36507)", "experiment": "Inhibition of MEK2 assessed as enzyme activity at 1 uM relative to untreated control", "parameters": "scale not given: the % may be the effect or the level left"}, "[3]": {"target": "Focal adhesion kinase 1 (Homo sapiens) (UniProt Q05397)", "experiment": "Inhibition of PTK2 assessed as enzyme activity at 1 uM relative to untreated control", "parameters": "scale not given: the % may be the effect or the level left"}, "[4]": {"target": "Protein kinase C eta type (Homo sapiens) (UniProt P24723)", "experiment": "Inhibition of PRKCH assessed as enzyme activity at 1 uM relative to untreated control", "parameters": "scale not given: the % may be the effect or the level left"}, "[5]": {"target": "RAC-gamma serine/threonine-protein kinase (Homo sapiens) (UniProt Q9Y243)", "experiment": "Inhibition of AKT3 assessed as enzyme activity at 1 uM relative to untreated control", "parameters": "scale not given: the % may be the effect or the level left"}, "[6]": {"target": "Hepatocyte growth factor receptor (Homo sapiens) (UniProt P08581)", "experiment": "Inhibition of MET assessed as enzyme activity at 1 uM relative to untreated control", "parameters": "scale not given: the % may be the effect or the level left"}, "[7]": {"target": "Cyclin-dependent kinase 19 (Homo sapiens) (UniProt Q9BWU1)", "experiment": "Inhibition of CDK11 assessed as enzyme activity at 1 uM relative to untreated control", "parameters": "scale not given: the % may be the effect or the level left"}, "[8]": {"target": "Cyclin-dependent kinase-like 2 (Homo sapiens) (UniProt Q92772)", "experiment": "Inhibition of CDKL2 assessed as enzyme activity at 1 uM relative to untreated control", "parameters": "scale not given: the % may be the effect or the level left"}, "[9]": {"target": "Cyclin-dependent kinase 3 (Homo sapiens) (UniProt Q00526)", "experiment": "Inhibition of CDK3 assessed as enzyme activity at 1 uM relative to untreated control", "parameters": "scale not given: the % may be the effect or the level left"}, "[10]": {"target": "Serine/threonine-protein kinase N1 (Homo sapiens) (UniProt Q16512)", "experiment": "Inhibition of PKN1 assessed as enzyme activity at 1 uM relative to untreated control", "parameters": "scale not given: the % may be the effect or the level left"}, "[11]": {"target": "Phosphatidylinositol 4,5-bisphosphate 3-kinase catalytic subunit delta isoform (Homo sapiens) (UniProt O00329)", "experiment": "Inhibition of PIK3CD assessed as enzyme activity at 1 uM relative to untreated control", "parameters": "scale not given: the % may be the effect or the level left"}, "[12]": {"target": "Casein kinase I isoform gamma-2 (Homo sapiens) (UniProt P78368)", "experiment": "Inhibition of CSNK1G2 assessed as enzyme activity at 1 uM relative to untreated control", "parameters": "scale not given: the % may be the effect or the level left"}, "[13]": {"target": "cAMP-dependent protein kinase catalytic subunit beta (Homo sapiens) (UniProt P22694)", "experiment": "Inhibition of PKACbeta assessed as enzyme activity at 1 uM relative to untreated control", "parameters": "scale not given: the % may be the effect or the level left"}, "[14]": {"target": "Serine/threonine-protein kinase ULK3 (Homo sapiens) (UniProt Q6PHR2)", "experiment": "Inhibition of ULK3 assessed as enzyme activity at 1 uM relative to untreated control", "parameters": "scale not given: the % may be the effect or the level left"}, "[15]": {"target": "Serine/threonine-protein kinase DCLK2 (Homo sapiens) (UniProt Q8N568)", "sequence (Q8N568 whole entry)": "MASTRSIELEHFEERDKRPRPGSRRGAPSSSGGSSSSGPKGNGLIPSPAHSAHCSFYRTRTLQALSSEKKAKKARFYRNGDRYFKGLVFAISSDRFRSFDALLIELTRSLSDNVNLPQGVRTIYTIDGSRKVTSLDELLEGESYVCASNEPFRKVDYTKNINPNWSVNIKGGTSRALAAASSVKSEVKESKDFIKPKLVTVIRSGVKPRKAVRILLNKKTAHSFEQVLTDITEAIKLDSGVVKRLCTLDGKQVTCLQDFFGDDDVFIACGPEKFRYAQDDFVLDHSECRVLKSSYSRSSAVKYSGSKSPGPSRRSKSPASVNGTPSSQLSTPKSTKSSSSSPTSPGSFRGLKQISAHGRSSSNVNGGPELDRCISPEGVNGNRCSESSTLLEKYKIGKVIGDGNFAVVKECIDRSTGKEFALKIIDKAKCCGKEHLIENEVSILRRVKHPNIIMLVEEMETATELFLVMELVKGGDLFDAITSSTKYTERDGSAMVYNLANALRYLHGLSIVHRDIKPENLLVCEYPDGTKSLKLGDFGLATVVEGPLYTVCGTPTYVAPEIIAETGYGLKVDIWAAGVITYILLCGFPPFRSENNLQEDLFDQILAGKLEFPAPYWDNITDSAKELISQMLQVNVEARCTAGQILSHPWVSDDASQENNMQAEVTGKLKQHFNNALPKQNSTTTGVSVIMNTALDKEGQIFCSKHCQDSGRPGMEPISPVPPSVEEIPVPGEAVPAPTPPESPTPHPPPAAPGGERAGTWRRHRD", "experiment": "Inhibition of DCAMKL2 assessed as enzyme activity at 1 uM relative to untreated control", "parameters": "scale not given: the % may be the effect or the level left"}, "[16]": {"target": "Epidermal growth factor receptor (Homo sapiens) (UniProt P00533)", "experiment": "Inhibition of EGFR assessed as enzyme activity at 1 uM relative to untreated control", "parameters": "scale not given: the % may be the effect or the level left"}, "[17]": {"target": "Aurora kinase B (Homo sapiens) (UniProt Q96GD4)", "experiment": "Inhibition of AURKB assessed as enzyme activity at 1 uM relative to untreated control", "parameters": "scale not given: the % may be the effect or the level left"}, "[18]": {"target": "Serine/threonine-protein kinase STK11 (Homo sapiens) (UniProt Q15831)", "sequence (Q15831 whole entry)": "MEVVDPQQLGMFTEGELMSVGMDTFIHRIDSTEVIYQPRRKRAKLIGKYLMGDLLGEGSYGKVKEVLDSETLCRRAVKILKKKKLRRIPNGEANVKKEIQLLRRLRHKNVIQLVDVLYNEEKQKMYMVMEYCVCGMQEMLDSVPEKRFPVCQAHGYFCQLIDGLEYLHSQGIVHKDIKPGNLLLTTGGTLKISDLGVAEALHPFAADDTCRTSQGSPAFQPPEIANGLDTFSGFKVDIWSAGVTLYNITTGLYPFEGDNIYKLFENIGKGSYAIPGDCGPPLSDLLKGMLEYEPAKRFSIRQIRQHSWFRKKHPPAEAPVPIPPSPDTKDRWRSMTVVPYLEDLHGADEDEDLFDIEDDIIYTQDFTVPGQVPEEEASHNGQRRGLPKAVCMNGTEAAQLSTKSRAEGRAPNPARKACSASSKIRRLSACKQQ", "experiment": "Inhibition of LKB1 assessed as enzyme activity at 1 uM relative to untreated control", "parameters": "scale not given: the % may be the effect or the level left"}, "[19]": {"tested_on": "Receptor-type tyrosine-protein kinase FLT3 (Homo sapiens), P36888 [D835Y]", "experiment": "Inhibition of FLT3 D835Y mutant assessed as enzyme activity at 1 uM relative to untreated control", "parameters": "scale not given: the % may be the effect or the level left"}, "[20]": {"target": "Phosphatidylinositol 4,5-bisphosphate 3-kinase catalytic subunit alpha isoform (Homo sapiens) (UniProt P42336)", "sequence (P42336 whole entry, canonical isoform)": "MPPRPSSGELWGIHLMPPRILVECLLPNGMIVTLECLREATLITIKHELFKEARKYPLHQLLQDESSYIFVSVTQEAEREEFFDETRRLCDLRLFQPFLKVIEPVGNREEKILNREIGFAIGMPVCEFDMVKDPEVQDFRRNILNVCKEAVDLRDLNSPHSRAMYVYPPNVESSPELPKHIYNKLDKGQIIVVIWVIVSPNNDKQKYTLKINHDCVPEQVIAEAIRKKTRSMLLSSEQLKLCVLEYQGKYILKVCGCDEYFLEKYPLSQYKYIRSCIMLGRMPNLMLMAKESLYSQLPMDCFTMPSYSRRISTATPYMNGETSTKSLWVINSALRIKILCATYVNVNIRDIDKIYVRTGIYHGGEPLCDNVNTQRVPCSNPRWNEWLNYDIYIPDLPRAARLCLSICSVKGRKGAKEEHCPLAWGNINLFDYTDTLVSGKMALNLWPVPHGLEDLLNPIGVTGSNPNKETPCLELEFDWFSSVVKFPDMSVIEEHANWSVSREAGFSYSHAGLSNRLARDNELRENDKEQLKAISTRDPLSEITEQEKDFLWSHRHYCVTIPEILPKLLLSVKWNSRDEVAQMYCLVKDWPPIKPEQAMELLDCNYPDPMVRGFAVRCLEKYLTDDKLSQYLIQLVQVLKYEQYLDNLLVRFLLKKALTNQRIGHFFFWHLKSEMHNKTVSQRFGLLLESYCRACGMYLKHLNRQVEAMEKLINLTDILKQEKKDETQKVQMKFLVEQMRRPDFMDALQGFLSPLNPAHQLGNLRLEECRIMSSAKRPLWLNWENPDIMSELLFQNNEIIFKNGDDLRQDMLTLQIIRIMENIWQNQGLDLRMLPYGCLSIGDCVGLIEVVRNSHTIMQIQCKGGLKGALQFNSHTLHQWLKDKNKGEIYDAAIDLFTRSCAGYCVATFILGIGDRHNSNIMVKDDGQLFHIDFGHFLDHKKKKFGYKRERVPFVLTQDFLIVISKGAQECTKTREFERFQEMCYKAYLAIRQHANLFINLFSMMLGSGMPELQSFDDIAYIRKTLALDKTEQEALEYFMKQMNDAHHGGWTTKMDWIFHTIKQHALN", "experiment": "Inhibition of PIK3CA assessed as enzyme activity at 1 uM relative to untreated control", "parameters": "scale not given: the % may be the effect or the level left"}, "[21]": {"target": "Serine/threonine-protein kinase 10 (Homo sapiens) (UniProt O94804)", "experiment": "Inhibition of LOK assessed as enzyme activity at 1 uM relative to untreated control", "parameters": "scale not given: the % may be the effect or the level left"}, "[22]": {"target": "BMP-2-inducible protein kinase (Homo sapiens) (UniProt Q9NSY1)", "experiment": "Inhibition of BIKE assessed as enzyme activity at 1 uM relative to untreated control", "parameters": "scale not given: the % may be the effect or the level left"}, "[23]": {"tested_on": "Tyrosine-protein kinase ABL1 (Homo sapiens), P00519 [T315I]", "experiment": "Inhibition of ABL1 T315I mutant assessed as enzyme activity at 1 uM relative to untreated control", "parameters": "scale not given: the % may be the effect or the level left"}, "[24]": {"target": "Ephrin type-B receptor 3 (Homo sapiens) (UniProt P54753)", "experiment": "Inhibition of EPHB3 assessed as enzyme activity at 1 uM relative to untreated control", "parameters": "scale not given: the % may be the effect or the level left"}, "[25]": {"target": "Calcium/calmodulin-dependent protein kinase type II subunit delta (Homo sapiens) (UniProt Q13557)", "experiment": "Inhibition of CAMK2D assessed as enzyme activity at 1 uM relative to untreated control", "parameters": "scale not given: the % may be the effect or the level left"}, "[26]": {"target": "Tyrosine-protein kinase ABL1 (Homo sapiens) (UniProt P00519)", "experiment": "Inhibition of ABL1 assessed as enzyme activity at 1 uM relative to untreated control", "parameters": "scale not given: the % may be the effect or the level left"}, "[27]": {"target": "Tyrosine-protein kinase CSK (Homo sapiens) (UniProt P41240)", "sequence (P41240 2-450 limits assumed)": "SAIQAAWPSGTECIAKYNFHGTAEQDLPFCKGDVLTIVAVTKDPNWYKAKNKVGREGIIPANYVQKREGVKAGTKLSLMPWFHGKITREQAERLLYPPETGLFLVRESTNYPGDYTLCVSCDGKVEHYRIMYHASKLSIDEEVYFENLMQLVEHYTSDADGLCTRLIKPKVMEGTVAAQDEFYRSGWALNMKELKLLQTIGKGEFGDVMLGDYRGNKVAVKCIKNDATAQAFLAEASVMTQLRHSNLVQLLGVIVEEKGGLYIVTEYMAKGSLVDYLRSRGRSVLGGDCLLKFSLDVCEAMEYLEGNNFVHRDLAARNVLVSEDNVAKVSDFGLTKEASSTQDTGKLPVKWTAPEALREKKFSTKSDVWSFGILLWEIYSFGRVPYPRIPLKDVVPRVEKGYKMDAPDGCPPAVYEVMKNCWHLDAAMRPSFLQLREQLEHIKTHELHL", "experiment": "Inhibition of CSK assessed as enzyme activity at 1 uM relative to untreated control", "parameters": "scale not given: the % may be the effect or the level left"}, "[28]": {"target": "Mitogen-activated protein kinase kinase kinase 7 (Homo sapiens) (UniProt O43318)", "sequence (O43318 whole entry)": "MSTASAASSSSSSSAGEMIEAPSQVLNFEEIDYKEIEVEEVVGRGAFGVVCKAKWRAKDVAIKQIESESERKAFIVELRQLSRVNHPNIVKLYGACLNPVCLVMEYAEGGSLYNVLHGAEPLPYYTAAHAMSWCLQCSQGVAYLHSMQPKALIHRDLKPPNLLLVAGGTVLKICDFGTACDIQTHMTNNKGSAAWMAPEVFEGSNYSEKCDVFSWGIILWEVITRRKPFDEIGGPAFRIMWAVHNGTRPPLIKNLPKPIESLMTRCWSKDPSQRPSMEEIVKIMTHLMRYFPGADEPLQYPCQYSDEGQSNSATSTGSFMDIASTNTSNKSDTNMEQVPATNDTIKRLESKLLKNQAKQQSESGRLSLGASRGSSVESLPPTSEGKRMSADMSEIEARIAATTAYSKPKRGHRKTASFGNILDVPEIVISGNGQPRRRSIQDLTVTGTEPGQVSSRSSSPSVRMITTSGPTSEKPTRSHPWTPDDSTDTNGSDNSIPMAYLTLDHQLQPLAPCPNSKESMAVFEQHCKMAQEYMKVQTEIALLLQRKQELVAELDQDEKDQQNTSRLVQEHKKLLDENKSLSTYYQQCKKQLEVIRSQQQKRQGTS", "experiment": "Inhibition of TAK1 assessed as enzyme activity at 1 uM relative to untreated control", "parameters": "scale not given: the % may be the effect or the level left"}, "[29]": {"target": "Phosphatidylinositol 4-phosphate 5-kinase type-1 alpha (Homo sapiens) (UniProt Q99755)", "experiment": "Inhibition of PIP5K1A assessed as enzyme activity at 1 uM relative to untreated control", "parameters": "scale not given: the % may be the effect or the level left"}, "[30]": {"target": "Protein kinase C theta type (Homo sapiens) (UniProt Q04759)", "experiment": "Inhibition of PRKCQ assessed as enzyme activity at 1 uM relative to untreated control", "parameters": "scale not given: the % may be the effect or the level left"}, "[31]": {"experiment": "Elimination half life in CD1 mouse", "format": "ADME, organism-based", "conditions": "in vivo, read-out: beta t1/2 (converted)"}, "[32]": {"target": "Aurora kinase A (Homo sapiens) (UniProt O14965)", "experiment": "Inhibition of AURKA assessed as enzyme activity at 1 uM relative to untreated control", "parameters": "scale not given: the % may be the effect or the level left"}, "[33]": {"target": "Ribosomal protein S6 kinase alpha-6 (Homo sapiens) (UniProt Q9UK32)", "experiment": "Inhibition of RPS6KA6 kinase domain 1 assessed as enzyme activity at 1 uM relative to untreated control", "parameters": "scale not given: the % may be the effect or the level left"}, "[34]": {"target": "MAP kinase-interacting serine/threonine-protein kinase 1 (Homo sapiens) (UniProt Q9BUB5)", "sequence (Q9BUB5 whole entry, looked up)": "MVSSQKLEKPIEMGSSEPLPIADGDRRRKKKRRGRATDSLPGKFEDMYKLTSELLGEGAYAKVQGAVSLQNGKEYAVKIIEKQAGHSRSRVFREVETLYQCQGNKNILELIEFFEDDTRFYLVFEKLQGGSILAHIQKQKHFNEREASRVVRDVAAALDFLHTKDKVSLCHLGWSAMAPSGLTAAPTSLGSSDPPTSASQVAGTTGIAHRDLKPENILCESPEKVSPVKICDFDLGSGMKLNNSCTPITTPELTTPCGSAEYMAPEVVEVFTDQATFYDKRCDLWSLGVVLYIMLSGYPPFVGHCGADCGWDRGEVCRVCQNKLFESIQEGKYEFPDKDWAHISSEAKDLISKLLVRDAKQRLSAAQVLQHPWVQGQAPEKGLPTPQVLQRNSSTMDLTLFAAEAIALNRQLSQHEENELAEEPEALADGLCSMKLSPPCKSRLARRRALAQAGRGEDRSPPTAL", "experiment": "Inhibition of MKNK1 assessed as enzyme activity at 1 uM relative to untreated control", "parameters": "scale not given: the % may be the effect or the level left"}, "[35]": {"target": "Tyrosine-protein kinase JAK1 (Homo sapiens) (UniProt P23458)", "sequence (P23458 whole entry, the tested form may be a part)": "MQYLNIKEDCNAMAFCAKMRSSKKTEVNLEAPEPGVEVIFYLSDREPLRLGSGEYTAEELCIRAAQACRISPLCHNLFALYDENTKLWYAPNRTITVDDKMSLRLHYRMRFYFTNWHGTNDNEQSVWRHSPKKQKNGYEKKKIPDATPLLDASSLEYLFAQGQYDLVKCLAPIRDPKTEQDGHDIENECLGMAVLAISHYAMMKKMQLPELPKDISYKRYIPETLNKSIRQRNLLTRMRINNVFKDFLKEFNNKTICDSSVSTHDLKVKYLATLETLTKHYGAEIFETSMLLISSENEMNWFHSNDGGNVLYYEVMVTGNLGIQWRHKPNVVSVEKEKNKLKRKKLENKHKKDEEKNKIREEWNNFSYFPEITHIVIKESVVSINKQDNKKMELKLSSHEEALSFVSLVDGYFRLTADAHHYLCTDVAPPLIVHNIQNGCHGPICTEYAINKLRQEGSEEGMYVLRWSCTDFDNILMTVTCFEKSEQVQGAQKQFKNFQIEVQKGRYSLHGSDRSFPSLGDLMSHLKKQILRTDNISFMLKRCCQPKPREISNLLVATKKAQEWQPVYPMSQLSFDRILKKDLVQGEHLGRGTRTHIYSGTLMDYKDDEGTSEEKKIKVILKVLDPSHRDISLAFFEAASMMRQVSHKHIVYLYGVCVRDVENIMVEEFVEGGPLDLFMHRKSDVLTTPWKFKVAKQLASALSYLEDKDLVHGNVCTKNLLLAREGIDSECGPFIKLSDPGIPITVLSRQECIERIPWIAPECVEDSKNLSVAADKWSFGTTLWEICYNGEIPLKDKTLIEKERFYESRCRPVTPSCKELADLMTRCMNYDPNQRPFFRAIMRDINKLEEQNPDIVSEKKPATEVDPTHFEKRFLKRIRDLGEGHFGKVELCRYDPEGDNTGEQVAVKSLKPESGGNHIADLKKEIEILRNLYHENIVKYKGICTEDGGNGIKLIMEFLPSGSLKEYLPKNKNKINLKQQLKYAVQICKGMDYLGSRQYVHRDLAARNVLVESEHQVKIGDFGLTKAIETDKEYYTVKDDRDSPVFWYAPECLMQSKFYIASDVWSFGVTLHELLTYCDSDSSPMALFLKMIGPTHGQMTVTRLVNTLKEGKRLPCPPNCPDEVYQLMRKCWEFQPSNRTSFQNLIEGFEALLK", "experiment": "Inhibition of JAK1 kinase domain 1 assessed as enzyme activity at 1 uM relative to untreated control", "parameters": "scale not given: the % may be the effect or the level left"}, "[36]": {"target": "Dual specificity mitogen-activated protein kinase kinase 1 (Homo sapiens) (UniProt Q02750)", "experiment": "Inhibition of MEK1 assessed as enzyme activity at 1 uM relative to untreated control", "parameters": "scale not given: the % may be the effect or the level left"}, "[37]": {"target": "High affinity nerve growth factor receptor (Homo sapiens) (UniProt P04629)", "experiment": "Inhibition of TRKA assessed as enzyme activity at 1 uM relative to untreated control", "parameters": "scale not given: the % may be the effect or the level left"}},
  "data": [
    {"compound": "Cc1ccc2c(Nc3ccc(Cl)cc3)nccc2c1Nc1ncccc1-c1ncnc2[nH]cnc12.Cl.Cl.Cl", "values": [
      {"measurement": "Activity", "setting": "[1]", "value": 94, "unit": "%"},
      {"measurement": "Activity", "setting": "[2]", "value": 99, "unit": "%"},
      {"measurement": "Activity", "setting": "[3]", "value": 93, "unit": "%"},
      {"measurement": "Activity", "setting": "[4]", "value": 100, "unit": "%"},
      {"measurement": "Activity", "setting": "[5]", "value": 96, "unit": "%"},
      {"measurement": "Activity", "setting": "[6]", "value": 73, "unit": "%"},
      {"measurement": "Activity", "setting": "[7]", "value": 100, "unit": "%"},
      {"measurement": "Activity", "setting": "[8]", "value": 100, "unit": "%"},
      {"measurement": "Activity", "setting": "[9]", "value": 84, "unit": "%"},
      {"measurement": "Activity", "setting": "[10]", "value": 100, "unit": "%"},
      {"measurement": "Activity", "setting": "[11]", "value": 100, "unit": "%"},
      {"measurement": "Activity", "setting": "[12]", "value": 100, "unit": "%"},
      {"measurement": "Activity", "setting": "[13]", "value": 94, "unit": "%"},
      {"measurement": "Activity", "setting": "[14]", "value": 100, "unit": "%"},
      {"measurement": "Activity", "setting": "[15]", "value": 100, "unit": "%"},
      {"measurement": "Activity", "setting": "[16]", "value": 100, "unit": "%"},
      {"measurement": "Activity", "setting": "[17]", "value": 85, "unit": "%"},
      {"measurement": "Activity", "setting": "[18]", "value": 100, "unit": "%"},
      {"measurement": "Activity", "setting": "[19]", "value": 92, "unit": "%"},
      {"measurement": "Activity", "setting": "[20]", "value": 100, "unit": "%"},
      {"measurement": "Activity", "setting": "[21]", "value": 0, "unit": "%"},
      {"measurement": "Activity", "setting": "[22]", "value": 70, "unit": "%"},
      {"measurement": "Activity", "setting": "[23]", "value": 72, "unit": "%"},
      {"measurement": "Activity", "setting": "[24]", "value": 10, "unit": "%"},
      {"measurement": "Activity", "setting": "[25]", "value": 79, "unit": "%"},
      {"measurement": "Activity", "setting": "[26]", "value": 51, "unit": "%"},
      {"measurement": "Activity", "setting": "[27]", "value": 100, "unit": "%"},
      {"measurement": "Activity", "setting": "[28]", "value": 84, "unit": "%"},
      {"measurement": "Activity", "setting": "[29]", "value": 95, "unit": "%"},
      {"measurement": "Activity", "setting": "[30]", "value": 100, "unit": "%"},
      {"measurement": "half-life", "setting": "[31]", "value": 3.3, "unit": "h"},
      {"measurement": "Activity", "setting": "[32]", "value": 100, "unit": "%"},
      {"measurement": "Activity", "setting": "[33]", "value": 92, "unit": "%"},
      {"measurement": "Activity", "setting": "[34]", "value": 100, "unit": "%"},
      {"measurement": "Activity", "setting": "[35]", "value": 98, "unit": "%"},
      {"measurement": "Activity", "setting": "[36]", "value": 100, "unit": "%"},
      {"measurement": "Activity", "setting": "[37]", "value": 15, "unit": "%"}
    ]}
  ]
}
